Experiments:
[1] = test system: giant foxtail; experiment: Test B pre-/postemergence herbicide test; assay type: in vivo, Setaria faberi; settings: for Plant response rating, Foxtail, Giant: preemergence; for Foxtail, Giant plant response rating: postemergence, visual rating, scale 0 (no effect) to 100 (complete control)
Summary of the method: (§1)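 Evaluation is visual, comparing treated with control plants on a scale where 0 means no effect and 100 means full control. Treatments were preemergence, or postemergence on seedlings 2–18 cm tall, and held 13–15 days in the greenhouse.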

[2] = test system: pigweed; experiment: Test B pre-/postemergence herbicide test; assay type: in vivo, Amaranthus retroflexus; settings: for Plant response rating, Pigweed: preemergence; for Pigweed plant response rating: postemergence, visual rating, scale 0 (no effect) to 100 (complete control)
Summary of the method: as §1

[3] = test system: barnyardgrass; experiment: Test B pre-/postemergence herbicide test; assay type: in vivo, Echinochloa crus-galli; settings: for Plant response rating, Barnyardgrass: preemergence; for Barnyardgrass plant response rating: postemergence, visual rating, scale 0 (no effect) to 100 (complete control)
Summary of the method: (§2)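 Visual rating, 0 (no effect) to 100 (complete control), versus untreated controls after 13–15 d in greenhouse. Pre- and postemergence applications (postemergence plants 2–18 cm, 1–4 leaves); flooded paddy arm at 2-leaf stage. Compounds in non-phytotoxic solvent plus surfactant.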

[4] = test system: rice; experiment: Test B flooded paddy test; assay type: in vivo, Oryza sativa; settings: 1000 g ai/ha, visual rating, scale 0 to 100 (0 no effect, 100 complete control), 13 to 15 days
Summary of the method: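 Each value is a visual 0–100 response rating taken against controls 13 to 15 days after treatment in the greenhouse. Plants received formulated chemical postemergence at the 1- to 4-leaf stage or, in flooded paddy, at the 2-leaf stage.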

[5] = test system: cocklebur; experiment: Test B pre-/postemergence herbicide test; assay type: in vivo, Xanthium strumarium; settings: for Plant response rating, Cocklebur: preemergence; for Cocklebur plant response rating: postemergence, visual rating, scale 0 (no effect) to 100 (complete control)
Summary of the method: as §2

[6] = test system: barnyardgrass; experiment: Test A pre-/postemergence herbicide test; assay type: in vivo, Echinochloa crus-galli
Summary of the method: (§3)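 Visual injury rating on a 0–100 scale (0 no effect, 100 complete control) versus untreated controls, about ten days after treatment in greenhouse. Pre: directed soil spray onto seeded sandy loam. Post: spray to runoff on plants 2–10 cm tall at one- to two-leaf stage.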

[7] = test system: Surinam grass; experiment: Test B pre-/postemergence herbicide test; assay type: in vivo, Urochloa decumbens; settings: for Plant response rating, Surinam Grass: preemergence; for Surinam Grass plant response rating: postemergence, visual rating, scale 0 (no effect) to 100 (complete control)
Summary of the method: as §1

[8] = test system: large crabgrass; experiment: Test A pre-/postemergence herbicide test; assay type: in vivo, Digitaria sanguinalis
Summary of the method: as §3

[9] = test system: velvetleaf; experiment: Test A pre-/postemergence herbicide test; assay type: in vivo, Abutilon theophrasti
Summary of the method: as §3

[10] = test system: giant foxtail; experiment: Test A pre-/postemergence herbicide test; assay type: in vivo, Setaria faberi
Summary of the method: as §3

[11] = test system: barnyardgrass; experiment: Test B flooded paddy test; assay type: in vivo, Echinochloa crus-galli; settings: 1000 g ai/ha, visual rating, scale 0 to 100 (0 no effect, 100 complete control), 13 to 15 days
Summary of the method: (§4)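 Visual ratings, 0 (no effect) to 100 (complete control), made versus controls after 13–15 d greenhouse. Paddy plants treated at 2-leaf stage; postemergence plants at 1- to 4-leaf stage, 2–18 cm tall.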

[12] = test system: ducksalad; experiment: Test B flooded paddy test; assay type: in vivo, Heteranthera limosa; settings: 1000 g ai/ha, visual rating, scale 0 to 100 (0 no effect, 100 complete control), 13 to 15 days
Summary of the method: as §4

[13] = test system: wheat; experiment: Test B postemergence herbicide test; assay type: in vivo, Triticum aestivum; design: key to Wheat plant response rating: 0 = no effect, 100 = complete control; settings: postemergence, 500 g ai/ha; visual rating, scale 0 (no effect) to 100 (complete control)
Summary of the method: (§5)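 Plants grow to 1- to 4-leaf stage (2–18 cm) for postemergence spraying, or to 2-leaf stage for the paddy test. Formulated compound is applied. Greenhouse holding lasts 13–15 days. Response is scored visually relative to controls, 0 no effect to 100 complete control; a dash means no result.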

[14] = test system: wild oat; experiment: Test B postemergence herbicide test; assay type: in vivo, Avena fatua; settings: postemergence, visual rating, scale 0 (no effect) to 100 (complete control)
Summary of the method: as §5

[15] = test system: corn; experiment: Test B pre-/postemergence herbicide test; assay type: in vivo, Zea mays; settings: for Plant response rating, Corn: preemergence; for Corn plant response rating: postemergence, visual rating, scale 0 (no effect) to 100 (complete control)
Summary of the method: as §1

[16] = test system: rice; experiment: Test B pre-/postemergence herbicide test; assay type: in vivo, Oryza sativa; settings: preemergence
Summary of the method: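 Plants compared with untreated controls 13–15 days post-treatment and given a visual 0–100 injury score. Applications: preemergence to seeds; postemergence at 1- to 4-leaf (2–18 cm); paddy species flooded, 2-leaf stage. Vehicle non-phytotoxic, surfactant included.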

[17] = test system: large crabgrass; experiment: Test B pre-/postemergence herbicide test; assay type: in vivo, Digitaria sanguinalis; settings: for Plant response rating, Crabgrass, Large: preemergence; for Crabgrass, Large plant response rating: postemergence, visual rating, scale 0 (no effect) to 100 (complete control)
Summary of the method: as §1

[18] = test system: redroot pigweed; experiment: Test A pre-/postemergence herbicide test; assay type: in vivo, Amaranthus retroflexus
Summary of the method: as §3

[19] = test system: velvetleaf; experiment: Test B pre-/postemergence herbicide test; assay type: in vivo, Abutilon theophrasti; settings: for Plant response rating, Velvetleaf: preemergence; for Velvetleaf plant response rating: postemergence, visual rating, scale 0 (no effect) to 100 (complete control)
Summary of the method: as §1

[20] = test system: blackgrass; experiment: Test B postemergence herbicide test; assay type: in vivo, Alopecurus myosuroides; settings: postemergence, visual rating, scale 0 (no effect) to 100 (complete control)
Summary of the method: as §4

[21] = test system: lambsquarters; experiment: Test B pre-/postemergence herbicide test; assay type: in vivo, Chenopodium album; settings: for Lambsquarters plant response rating: postemergence, visual rating, scale 0 (no effect) to 100 (complete control)
Summary of the method: as §1

[22] = test system: small flower umbrella sedge; experiment: Test B flooded paddy test; assay type: in vivo, Cyperus difformis; settings: 1000 g ai/ha, visual rating, scale 0 to 100 (0 no effect, 100 complete control), 13 to 15 days
Summary of the method: as §4

[23] = test system: morningglory; experiment: Test A pre-/postemergence herbicide test; assay type: in vivo, Ipomoea spp.
Summary of the method: as §3

[24] = test system: morningglory; experiment: Test B pre-/postemergence herbicide test; assay type: in vivo, Ipomoea coccinea; settings: for Plant response rating, Morningglory: preemergence; for Morningglory plant response rating: postemergence, visual rating, scale 0 (no effect) to 100 (complete control)
Summary of the method: as §2

[25] = 500 g ai/ha, visual rating 0-100, 0 no effect, 100 complete control
[26] = 125 g ai/ha, 0 to 100 scale, 0 is no effect, 100 is complete control
[27] = Postemergence, 500 g ai/ha, 0 to 100 scale, 0 no effect, 100 complete control
[28] = Postemergence, 2000 g ai/ha, 0 to 100 scale, 0 no effect, 100 complete control
[29] = Preemergence, 500 g ai/ha, visual rating, 0 to 100 scale (0 no effect, 100 complete control)
[30] = Preemergence, 2000 g ai/ha, visual rating, 0 to 100 scale (0 no effect, 100 complete control)
[31] = preemergence, 500 g ai/ha, visual injury, 0 to 100 scale (0 no effect, 100 complete control)

CCn1nc(C(C)(C)C)cc1C(=O)Nc1cc(C(=O)OC)cc(C)n1 [Compound 148]
Plant response rating, Foxtail, Giant [1, 25]: 20 | Foxtail, Giant plant response rating ([1]; 125 g ai/ha): 10 | Foxtail, Giant plant response rating ([1]; 500 g ai/ha): 10 | Plant response rating, Foxtail, Giant [1, 26]: 0 | Plant response rating, Pigweed [2, 25]: 0 | Pigweed plant response rating ([2]; 125 g ai/ha): 10 | Pigweed plant response rating ([2]; 500 g ai/ha): 20 | Plant response rating, Pigweed [2, 26]: 0 | Plant response rating, Barnyardgrass [3, 25]: 10 | Barnyardgrass plant response rating ([3]; 125 g ai/ha): 0 | Barnyardgrass plant response rating ([3]; 500 g ai/ha): 20 | Plant response rating, Barnyardgrass [3, 26]: 0 | Rice plant response rating [4]: 0 | Plant response rating, Cocklebur [5, 25]: 0 | Cocklebur plant response rating ([5]; 125 g ai/ha): 20 | Cocklebur plant response rating ([5]; 500 g ai/ha): 70 | Plant response rating, Cocklebur [5, 26]: 0 | Barnyardgrass plant response rating [6, 27]: 20 | Plant response rating, Barnyardgrass [6, 28]: 25 | Barnyardgrass plant response rating [6, 29]: 0 | Barnyardgrass plant response rating [6, 30]: 20 | Plant response rating, Surinam Grass [7, 25]: 0 | Surinam Grass plant response rating ([7]; 125 g ai/ha): 10 | Surinam Grass plant response rating ([7]; 500 g ai/ha): 10 | Plant response rating, Surinam Grass [7, 26]: 0 | Crabgrass, Large plant response rating [8, 27]: 5 | Plant response rating, Crabgrass, Large [8, 28]: 10 | Crabgrass, Large plant response rating [8, 29]: 0 | Crabgrass, Large plant response rating [8, 30]: 15 | Velvetleaf plant response rating [9, 27]: 20 | Plant response rating, Velvetleaf [9, 28]: 15 | Velvetleaf plant response rating [9, 30]: 10 | Velvetleaf plant response rating [9, 31]: 0 | Foxtail, Giant plant response rating [10, 27]: 15 | Plant response rating, Foxtail, Giant [10, 28]: 15 | Foxtail, Giant plant response rating [10, 29]: 0 | Foxtail, Giant plant response rating [10, 30]: 10 | Barnyardgrass plant response rating [11]: 20 | Ducksalad plant response rating [12]: 0 | Wheat plant response rating [13]: 30 | Oat, Wild plant response rating ([14]; 125 g ai/ha): 10 | Oat, Wild plant response rating ([14]; 500 g ai/ha): 10 | Plant response rating, Corn [15, 25]: 0 | Corn plant response rating ([15]; 125 g ai/ha): 10 | Corn plant response rating ([15]; 500 g ai/ha): 10 | Plant response rating, Corn [15, 26]: 0 | Plant response rating, Rice [16, 25]: 10 | Plant response rating, Rice [16, 26]: 0 | Plant response rating, Crabgrass, Large [17, 25]: 0 | Crabgrass, Large plant response rating ([17]; 125 g ai/ha): 10 | Crabgrass, Large plant response rating ([17]; 500 g ai/ha): 10 | Plant response rating, Crabgrass, Large [17, 26]: 0 | Pigweed plant response rating [18, 27]: 0 | Plant response rating, Pigweed [18, 28]: 15 | Pigweed plant response rating [18, 30]: 25 | Pigweed plant response rating [18, 31]: 0 | Plant response rating, Velvetleaf [19, 25]: 0 | Velvetleaf plant response rating ([19]; 125 g ai/ha): 10 | Velvetleaf plant response rating ([19]; 500 g ai/ha): 10 | Plant response rating, Velvetleaf [19, 26]: 0 | Blackgrass plant response rating ([20]; 125 g ai/ha): 0 | Blackgrass plant response rating ([20]; 500 g ai/ha): 0 | Lambsquarters plant response rating ([21]; 125 g ai/ha): 10 | Lambsquarters plant response rating ([21]; 500 g ai/ha): 10 | Plant response rating, Lambsquarters ([21]; preemergence, 125 g ai/ha, 0 to 100 scale, 0 is no effect, 100 is complete control): 0 | Sedge, Umbrella plant response rating [22]: 70 | Morningglory plant response rating [23, 27]: 15 | Plant response rating, Morningglory [23, 28]: 10 | Morningglory plant response rating [23, 29]: 0 | Morningglory plant response rating [23, 30]: 5 | Plant response rating, Morningglory [24, 25]: 0 | Morningglory plant response rating ([24]; 125 g ai/ha): 10 | Morningglory plant response rating ([24]; 500 g ai/ha): 10 | Plant response rating, Morningglory [24, 26]: 0
